Results as given in patent US20250136595A1, “ACYLATED HETEROCYCLIC QUINAZOLINE DERIVATIVES AS INHIBITORS OF ERBB2” (Enliven Inc., priority 2022, published 2025).
pIC50: −log10 of the molar value. Counter-ions that a name gives are not always drawn.

Tests used:
[1] = molecular target: T1, phosphorylated ERBB2 (pERBB2) (Homo sapiens, UniProt P04626); assay: Detection of phosphorylated ERBB2 (pERBB2) by ELISA in BT-474 cells; type: cell-based; conditions: four hour incubation with compound
T1 construct: endogenous in cells; host or cells: BT-474
T1 sequence (P04626 23-1255): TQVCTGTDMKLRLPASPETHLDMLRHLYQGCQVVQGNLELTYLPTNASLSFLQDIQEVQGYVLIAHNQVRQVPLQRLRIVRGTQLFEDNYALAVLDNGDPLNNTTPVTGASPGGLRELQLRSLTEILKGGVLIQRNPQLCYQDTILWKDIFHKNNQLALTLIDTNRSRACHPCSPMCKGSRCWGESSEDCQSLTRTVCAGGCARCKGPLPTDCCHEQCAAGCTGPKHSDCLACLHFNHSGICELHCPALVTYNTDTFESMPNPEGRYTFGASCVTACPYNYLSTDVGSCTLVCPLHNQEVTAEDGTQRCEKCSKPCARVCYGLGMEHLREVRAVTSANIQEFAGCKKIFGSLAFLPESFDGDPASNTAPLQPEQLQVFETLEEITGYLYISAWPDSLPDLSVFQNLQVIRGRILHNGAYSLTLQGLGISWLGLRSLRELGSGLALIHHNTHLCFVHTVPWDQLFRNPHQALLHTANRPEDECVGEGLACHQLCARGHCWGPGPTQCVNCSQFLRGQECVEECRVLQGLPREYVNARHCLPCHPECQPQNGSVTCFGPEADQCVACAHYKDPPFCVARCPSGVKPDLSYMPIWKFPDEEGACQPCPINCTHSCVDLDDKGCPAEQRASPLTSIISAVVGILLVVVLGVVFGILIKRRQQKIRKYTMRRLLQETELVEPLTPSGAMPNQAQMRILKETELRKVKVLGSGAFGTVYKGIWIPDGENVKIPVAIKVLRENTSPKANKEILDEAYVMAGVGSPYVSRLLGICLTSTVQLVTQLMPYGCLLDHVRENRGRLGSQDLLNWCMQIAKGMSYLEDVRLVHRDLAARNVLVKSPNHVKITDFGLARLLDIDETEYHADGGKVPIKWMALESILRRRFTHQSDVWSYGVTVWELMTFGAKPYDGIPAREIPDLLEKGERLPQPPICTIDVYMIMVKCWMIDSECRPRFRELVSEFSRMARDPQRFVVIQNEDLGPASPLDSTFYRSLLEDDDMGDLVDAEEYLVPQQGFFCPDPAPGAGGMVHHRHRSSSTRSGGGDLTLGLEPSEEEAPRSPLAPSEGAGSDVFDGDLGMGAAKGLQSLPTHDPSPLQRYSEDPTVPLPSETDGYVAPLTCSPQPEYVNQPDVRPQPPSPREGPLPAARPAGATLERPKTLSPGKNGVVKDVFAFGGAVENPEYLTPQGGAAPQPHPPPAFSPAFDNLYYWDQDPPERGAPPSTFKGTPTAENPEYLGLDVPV
Outline: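 BT-474 cells treated 4 h at 37 °C, 5% CO2 with four-fold dilutions (10 μM to 0.01 nM final). Lysates analysed by ELISA for pERBB2, TMB read at OD 450 nm. % relative activity normalised to no-cell (low) and 0.1% DMSO-treated (high) controls.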

Ba/F3 ERBB2 YVMA = Ba/F3 ERBB2 YVMA (Homo sapiens, UniProt P04626, DUP772-775, cells depend on it); assay: Cell viability assay (CellTiter Glo) in Ba/F3 cells engineered to express ERBB2 YVMA; type: cell-based, mouse; conditions: Ba/F3 cells expressing human ERBB2 YVMA mutant, 72 hours, % viability, read-out: Ba/F3 ERBB2 YVMA IC50
Ba/F3 ERBB2 YVMA, sequence (P04626 with tags, fused parts or gaps DUP772-775): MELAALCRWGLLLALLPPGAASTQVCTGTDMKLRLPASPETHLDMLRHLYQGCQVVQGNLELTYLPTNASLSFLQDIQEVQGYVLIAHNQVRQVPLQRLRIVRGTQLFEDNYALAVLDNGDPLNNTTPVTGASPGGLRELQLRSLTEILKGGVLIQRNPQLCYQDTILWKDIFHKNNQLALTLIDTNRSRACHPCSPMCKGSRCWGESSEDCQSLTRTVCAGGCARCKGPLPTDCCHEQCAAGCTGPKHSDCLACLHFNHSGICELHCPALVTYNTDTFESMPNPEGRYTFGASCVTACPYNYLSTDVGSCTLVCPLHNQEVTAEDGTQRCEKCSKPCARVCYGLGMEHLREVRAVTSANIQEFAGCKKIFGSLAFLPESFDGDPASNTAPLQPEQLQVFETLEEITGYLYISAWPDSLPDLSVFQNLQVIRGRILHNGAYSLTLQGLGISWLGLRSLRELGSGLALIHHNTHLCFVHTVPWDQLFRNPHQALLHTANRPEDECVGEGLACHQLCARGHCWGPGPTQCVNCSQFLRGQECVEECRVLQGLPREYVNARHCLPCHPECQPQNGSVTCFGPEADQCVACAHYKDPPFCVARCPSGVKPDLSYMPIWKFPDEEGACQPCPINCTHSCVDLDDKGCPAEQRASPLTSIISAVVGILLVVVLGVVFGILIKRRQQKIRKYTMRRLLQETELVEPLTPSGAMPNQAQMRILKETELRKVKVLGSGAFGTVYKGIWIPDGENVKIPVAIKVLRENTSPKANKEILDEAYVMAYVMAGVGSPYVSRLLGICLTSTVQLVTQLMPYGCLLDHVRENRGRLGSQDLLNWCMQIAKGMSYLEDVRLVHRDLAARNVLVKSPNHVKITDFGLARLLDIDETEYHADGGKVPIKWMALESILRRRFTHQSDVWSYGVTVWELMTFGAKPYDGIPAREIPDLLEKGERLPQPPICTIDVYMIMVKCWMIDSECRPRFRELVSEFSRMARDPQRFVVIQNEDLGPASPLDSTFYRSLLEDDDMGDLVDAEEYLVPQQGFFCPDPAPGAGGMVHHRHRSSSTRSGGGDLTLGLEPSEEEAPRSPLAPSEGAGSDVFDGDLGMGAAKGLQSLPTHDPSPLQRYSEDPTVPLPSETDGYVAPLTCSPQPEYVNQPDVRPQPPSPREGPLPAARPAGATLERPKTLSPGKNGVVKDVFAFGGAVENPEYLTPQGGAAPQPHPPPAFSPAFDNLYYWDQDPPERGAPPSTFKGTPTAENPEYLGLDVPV
Outline: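 IL-3-independent mouse Ba/F3 line stably transduced with human ERBB2 YVMA, seeded at 3000 cells/well, exposed to serially diluted compound (≤0.1% DMSO) for 72 h at 37° C. ATP read by CellTiter Glo luminescence, normalised to DMSO and media-only controls; sigmoidal nonlinear regression fit.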

[2] = molecular target: T2, phosphorylated EGFR (pEGFR) (Homo sapiens, UniProt P00533); assay: Detection of phosphorylated EGFR (pEGFR) in EGF-stimulated A431 cells (AlphaLISA); type: cell-based; conditions: A431 cells (10% FBS), 4 hours incubation, EGF 30 ng/mL for 10 minutes
T2 construct: performed to measure phosphorylated EGFR levels using A431 cells; endogenous in cells; host or cells: A431
T2 sequence (P00533 25-1210): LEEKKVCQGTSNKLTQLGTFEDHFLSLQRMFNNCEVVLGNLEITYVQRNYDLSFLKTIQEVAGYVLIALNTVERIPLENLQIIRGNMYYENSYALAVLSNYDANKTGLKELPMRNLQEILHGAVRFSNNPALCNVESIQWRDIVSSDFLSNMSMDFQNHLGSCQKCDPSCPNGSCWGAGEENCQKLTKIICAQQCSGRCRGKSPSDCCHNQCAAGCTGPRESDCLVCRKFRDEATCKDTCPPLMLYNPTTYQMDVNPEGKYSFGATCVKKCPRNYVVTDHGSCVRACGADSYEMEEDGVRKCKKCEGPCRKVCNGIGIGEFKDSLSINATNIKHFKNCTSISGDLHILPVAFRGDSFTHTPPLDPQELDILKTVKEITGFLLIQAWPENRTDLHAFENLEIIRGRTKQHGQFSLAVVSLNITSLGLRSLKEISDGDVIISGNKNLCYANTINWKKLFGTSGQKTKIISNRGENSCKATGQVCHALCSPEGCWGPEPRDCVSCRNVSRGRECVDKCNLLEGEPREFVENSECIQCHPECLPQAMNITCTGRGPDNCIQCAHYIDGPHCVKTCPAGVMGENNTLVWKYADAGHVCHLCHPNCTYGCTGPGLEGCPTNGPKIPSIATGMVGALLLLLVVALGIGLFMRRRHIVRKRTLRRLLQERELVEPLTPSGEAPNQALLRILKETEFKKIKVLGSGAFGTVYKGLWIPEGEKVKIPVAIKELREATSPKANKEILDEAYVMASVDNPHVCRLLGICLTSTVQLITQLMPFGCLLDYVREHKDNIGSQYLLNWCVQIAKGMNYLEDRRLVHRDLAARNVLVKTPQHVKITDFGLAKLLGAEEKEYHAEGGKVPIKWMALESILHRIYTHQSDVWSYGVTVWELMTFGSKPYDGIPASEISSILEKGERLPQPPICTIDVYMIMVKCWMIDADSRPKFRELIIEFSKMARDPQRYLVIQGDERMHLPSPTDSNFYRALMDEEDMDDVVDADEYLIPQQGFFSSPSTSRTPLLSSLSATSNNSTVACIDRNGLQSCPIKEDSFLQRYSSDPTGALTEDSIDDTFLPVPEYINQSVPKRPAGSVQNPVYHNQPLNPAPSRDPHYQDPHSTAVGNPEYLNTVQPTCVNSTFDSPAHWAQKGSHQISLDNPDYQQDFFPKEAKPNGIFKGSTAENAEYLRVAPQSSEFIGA
Outline: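 Cells in 10% FBS treated with compound 4 h at 37° C., then stimulated 10 min with 30 ng/mL EGF, lysed, and pEGFR measured by AlphaLISA. Inhibition normalized to DMSO and staurosporine controls; IC50 from four-parameter logistic fit.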

pIC50 [1] | pIC50 [2] | Structure (SMILES) | GI50 (Ba/F3 ERBB2 YVMA)
7.32 | 5.50 | C=CC(=O)N1CCN(c2cc3c(Nc4ccc(Cc5ccc6c(c5)ncn6C)c(C)c4)ncnc3cn2)[C@@H](C)C1 [Compound 86, 1-[(3S)-3-methyl-4-[4-({3-methyl-4-[(1-methyl-1,3-benzodiazol-5-yl)methyl]phenyl}amino)pyrido[3,4-d]pyrimidin-6-yl]piperazin-1-yl]prop-2-en-1-one] | 20.5 nM
7.45 | 5.63 | CC#CC(=O)N1CC2CCC(C1)N2c1ccc2ncnc(Nc3ccc(Oc4ccn5ncnc5c4)c(C)c3)c2n1 [Compound 26, 1-(8-{4-[(3-methyl-4-{[1,2,4]triazolo[1,5-a]pyridin-7-yloxy}phenyl)amino]pyrido[3,2-d]pyrimidin-6-yl}-3,8-diazabicyclo[3.2.1]octan-3-yl)but-2-yn-1-one] | 6.16 nM
7.25 | 5.17 | Cc1cc(Nc2ncnc3ccc(N4CCN(C(=O)/C=C/CN(C)C)[C@H](C)C4)nc23)ccc1Cc1ccc2c(c1)ncn2C [Compound 121, (R,E)-4-(dimethylamino)-1-(2-methyl-4-(4-((3-methyl-4-((1-methyl-1H-benzo[d]imidazol-5-yl)methyl)phenyl)amino)pyrido[3,2-d]pyrimidin-6-yl)piperazin-1-yl)but-2-en-1-one] | 9.08 nM
7.02 | < 5.00 | C=CC(=O)N1CCN(c2ccc3ncnc(Nc4ccc(Cc5ccc6c(c5)ncn6C)c(C)c4)c3c2)[C@@H](C)C1 [Compound 125, (S)-1-(3-methyl-4-(4-((3-methyl-4-((1-methyl-1H-benzo[d]imidazol-5-yl)methyl)phenyl)amino)quinazolin-6-yl)piperazin-1-yl)prop-2-en-1-one] | 61.2 nM
7.36 | < 5.00 | Cc1cc(Nc2ncnc3ccc(N4CCN(C(=O)/C=C/CN(C)C)C[C@@H]4C)nc23)ccc1Cc1ccn2ncnc2c1 [Compound 105, (2E)-4-(dimethylamino)-1-[(3S)-3-methyl-4-{4-[(3-methyl-4-{[1,2,4]triazolo[1,5-a]pyridin-7-ylmethyl}phenyl)amino]pyrido[3,2-d]pyrimidin-6-yl}piperazin-1-yl]but-2-en-1-one] | 145 nM
7.16 | < 5.00 | C=CC(=O)N1CCN(c2ccc3ncnc(Nc4ccc(CN5CCn6ncnc6C5)c(C)c4)c3n2)CC1 [Compound 34, 1-(4-{4-[(3-methyl-4-{5H,6H,8H-[1,2,4]triazolo[1,5-a]pyrazin-7-ylmethyl}phenyl)amino]pyrido[3,2-d]pyrimidin-6-yl}piperazin-1-yl)prop-2-en-1-one] | 255 nM
7.22 | 5.47 | C=CC(=O)N1CCN(c2cc3c(Nc4ccc(Oc5ccc(C(=O)NCC(C)(C)C)cc5)c(C)c4)ncnc3cn2)CC1 [Compound 39, N-(2,2-dimethylpropyl)-4-[2-methyl-4-({6-[4-(prop-2-enoyl)piperazin-1-yl]pyrido[3,4-d]pyrimidin-4-yl}amino)phenoxy]benzamide] | 53 nM
7.51 | < 5.00 | Cc1cc(Nc2ncnc3ccc(N4CCN(C(=O)/C=C/CN(C)C)[C@H](C)C4)c(F)c23)ccc1Cc1ccn2ncnc2c1 [Compound 93, (2E)-4-(dimethylamino)-1-[(2R)-4-{5-fluoro-4-[(3-methyl-4-{[1,2,4]triazolo[1,5-a]pyridin-7-ylmethyl}phenyl)amino]quinazolin-6-yl}-2-methylpiperazin-1-yl]but-2-en-1-one formate] | 49 nM
7.57 | 5.29 | CC#CC(=O)N1CCN(c2ccc3ncnc(Nc4ccc(Oc5ccn6ncnc6c5)c(C)c4)c3n2)CC1 [Compound 8, 1-(4-{4-[(3-methyl-4-{[1,2,4]triazolo[1,5-a]pyridin-7-yloxy}phenyl)amino]pyrido[3,2-d]pyrimidin-6-yl}piperazin-1-yl)but-2-yn-1-one] | 18.9 nM
6.48 | 5.42 | CC#CC(=O)N1CCN(c2ccc3ncnc(Nc4ccc(O[C@@H]5CCCOC5)c(C)c4)c3n2)CC1 [Compound 32, 1-{4-[4-({3-methyl-4-[(3R)-oxan-3-yloxy]phenyl}amino)pyrido[3,2-d]pyrimidin-6-yl]piperazin-1-yl}but-2-yn-1-one] | 288 nM
7.80 | 5.56 | C=CC(=O)N1CCN(c2cc3c(Nc4ccc(Cc5ccn6ncnc6c5)c(C)c4)ncnc3cn2)CC1 [Compound 103, 1-(4-(4-((4-([1,2,4]triazolo[1,5-a]pyridin-7-ylmethyl)-3-methylphenyl)amino)pyrido[3,4-d]pyrimidin-6-yl)piperazin-1-yl)prop-2-en-1-one] | 24.9 nM
7.50 | < 5.00 | C=CC(=O)N1CCN(c2ncc3ncnc(Nc4ccc(Cc5ccn6ncnc6c5)c(C)c4)c3n2)[C@@H](C)C1 [Compound 113, 1-[(3S)-3-methyl-4-{8-[(3-methyl-4-{[1,2,4]triazolo[1,5-a]pyridin-7-ylmethyl}phenyl)amino]pyrimido[5,4-d][1,3]diazin-2-yl}piperazin-1-yl]prop-2-en-1-one] | 8.87 nM
6.60 | < 5.00 | C=CC(=O)N1[C@H](C)CN(c2ccc3ncnc(Nc4ccc(Oc5ccn6ncnc6c5)c(C)c4)c3n2)C[C@H]1C [Compound 61, 1-[(2R,6R)-2,6-dimethyl-4-{4-[(3-methyl-4-{[1,2,4]triazolo[1,5-a]pyridin-7-yloxy}phenyl)amino]pyrido[3,2-d]pyrimidin-6-yl}piperazin-1-yl]prop-2-en-1-one] | > 500 nM
8.06 | 6.53 | C=CC(=O)N1CCN(c2ccc3ncnc(Nc4ccc(Oc5ccn6ncnc6c5)c(C)c4)c3n2)C[C@H]1C [Compound 10, 1-[(2R)-2-methyl-4-{4-[(3-methyl-4-{[1,2,4]triazolo[1,5-a]pyridin-7-yloxy}phenyl)amino]pyrido[3,2-d]pyrimidin-6-yl}piperazin-1-yl]prop-2-en-1-one] | 4.61 nM
7.89 | 5.83 | C=CC(=O)N1CCN(c2ncc3ncnc(Nc4ccc(Oc5ccc6c(c5)ncn6C)c(C)c4)c3n2)CC1 [Compound 130, 1-(4-(8-((3-methyl-4-((1-methyl-1H-benzo[d]imidazol-5-yl)oxy)phenyl)amino)pyrimido[5,4-d]pyrimidin-2-yl)piperazin-1-yl)prop-2-en-1-one] | 15 nM
7.53 | 5.55 | CC#CC(=O)N1CCN(c2ccc3ncnc(Nc4ccc(Oc5ccc6c(c5)ncn6C)c(C)c4)c3n2)C[C@H]1C [Compound 65, 1-[(2R)-2-methyl-4-[4-({3-methyl-4-[(1-methyl-1,3-benzodiazol-5-yl)oxy]phenyl}amino)pyrido[3,2-d]pyrimidin-6-yl]piperazin-1-yl]but-2-yn-1-one] | 4.38 nM
7.18 | 6.73 | C=CC(=O)N1CCN(c2ccc3ncnc(Nc4ccc(O[C@@H]5CCCOC5)c(C)c4)c3n2)CC1 [Compound 98, 1-{4-[4-({3-methyl-4-[(3R)-oxan-3-yloxy]phenyl}amino)pyrido[3,2-d]pyrimidin-6-yl]piperazin-1-yl}prop-2-en-1-one] | 64.4 nM
7.55 | 5.26 | C=CC(=O)N1CCN(c2ncc3ncnc(Nc4ccc(Cc5ccn6ncnc6c5)c(C)c4)c3n2)C[C@H]1C [Compound 111, (R)-1-(4-(8-((4-([1,2,4]triazolo[1,5-a]pyridin-7-ylmethyl)-3-methylphenyl)amino)pyrimido[5,4-d]pyrimidin-2-yl)-2-methylpiperazin-1-yl)prop-2-en-1-one] | 22.7 nM
7.32 | 6.61 | C=CC(=O)N1CCN(c2ccc3ncnc(Nc4ccc(O[C@@H]5CCCOC5)c(C)c4)c3c2)CC1 [Compound 102, 1-{4-[4-({3-methyl-4-[(3R)-oxan-3-yloxy]phenyl}amino)quinazolin-6-yl]piperazin-1-yl}prop-2-en-1-one] | 43.9 nM
7.61 | 5.70 | C=CC(=O)N1CCN(c2ncc3ncnc(Nc4ccc(Oc5ccc6c(c5)ncn6C)c(C)c4)c3n2)[C@@H](C)C1 [Compound 76, 1-[(3S)-3-methyl-4-[8-({3-methyl-4-[(1-methyl-1,3-benzodiazol-5-yl)oxy]phenyl}amino)-[1,3]diazino[5,4-d]pyrimidin-2-yl]piperazin-1-yl]prop-2-en-1-one] | 10 nM
7.92 | 5.59 | C=CC(=O)N1CCN(c2cc3c(Nc4ccc(Oc5ccn6ncnc6c5)c(C)c4)ncnc3cn2)C[C@H]1C [Compound 55, 1-[(2R)-2-methyl-4-{4-[(3-methyl-4-{[1,2,4]triazolo[1,5-a]pyridin-7-yloxy}phenyl)amino]pyrido[3,4-d]pyrimidin-6-yl}piperazin-1-yl]prop-2-en-1-one] | 18.5 nM
6.28 | 5.39 | CC#CC(=O)N1CCN(c2ccc3ncnc(Nc4ccc(O[C@H]5CCCOC5)c(C)c4)c3n2)CC1 [Compound 33, 1-{4-[4-({3-methyl-4-[(3S)-oxan-3-yloxy]phenyl}amino)pyrido[3,2-d]pyrimidin-6-yl]piperazin-1-yl}but-2-yn-1-one] | 237 nM
